Test results published in patent US20190127456A1, “METHODS OF TREATING IDIOPATHIC PULMONARY FIBROSIS” (FibroGen, Inc., priority 2017, published 2019).
Like-named read-outs stand apart in the source and are kept apart here.

Assays:
[1] = system: fibrosis genes in irradiated lung; experiment: Microarray analysis of mRNA transcripts in irradiated lung; format: in vivo, mouse; conditions: for % Normalization of gene expression, Igfbp5 / % Normalization of gene expression, Abca3 / % Normalization of gene expression, Gdf2 / % Normalization of gene expression, Cx3cl1 / % Normalization of gene expression, Retnla / % Normalization of gene expression, Nt5e / % Normalization of gene expression, Plat / % Normalization of gene expression, Ccr2 / % Normalization of gene expression, Igfbp7 / % Normalization of gene expression, Cdkn2a / % Normalization of gene expression, Apln / % Normalization of gene expression, Wisp1: irradiated mouse lung, 24 weeks after RT, 8 weeks treatment; for % Normalization of gene expression, Igfbp5: RT fold change 0.3; for % Normalization of gene expression, Abca3 / % Normalization of gene expression, Gdf2: RT fold change 0.4; for % Normalization of gene expression, Cx3cl1: RT fold change 0.5; for % Normalization of gene expression, Retnla: RT fold change 2.0; for % Normalization of gene expression, Nt5e: RT fold change 2.1; for % Normalization of gene expression, Plat: RT fold change 2.2; for % Normalization of gene expression, Ccr2: RT fold change 2.4; for % Normalization of gene expression, Igfbp7: RT fold change 2.6; for % Normalization of gene expression, Cdkn2a: RT fold change 2.7; for % Normalization of gene expression, Apln: RT fold change 5.3; for expression of the Wisp 1 and Nt5e genes: monotherapy compared to RT treatment alone
Method: C57B1/6 mice were irradiated with 14.5 Gy photons; full thorax, single dose. Treatment with therapeutic agent(s) (pamrevlumab, pirfenidone, and/or nintedanib) was initiated 16 weeks post-irradiation and continued for 8 weeks. Pamrevlumab (FG) was given IP, BIW, at 40 mg/kg; pirfenidone (PF) was given PO in chow, QD, at 300 mg/kg; nintedanib (ND) was given PO in chow, QD, at 100 mg/kg. Treatment with each agent alone, with combinations of two, and with a triple combination were carried out. Controls included non-irradiated mice, mice that were irradiated and not treated, and mice that were irradiated and given human IgG. Endpoint measurements were taken at 24 weeks for HRCT (lung structure), blood gas analysis (lung function), histology and gene expression analysis.
Microarray analysis of mRNA transcripts of numerous genes at 24 weeks after RT were carried out by standard techniques to compare the expression profiles of irradiated and treated animals to irradiated animals that were not further treated. The results of the later group, RT (control), were used to normalize the expression data from the other groups. Briefly, RNA from 4-7 animals per condition (RT (control), RT+hIgG, RT+FG, RT+ND, RT+PF, RT+FG+ND, RT+FG+PF, RT+ND+PF, RT+FG+ND+PF). Affymetrix 430 2.0 data was used. RT induced changes (≥1.5×, p<0.05) were filtered for treatment dependent correction (>50% correction, p<0.05). 80 RT-induced and 68 RT-suppressed transcripts were normalized at least 50% by one or more treatments. The resulting list was dominated by pamrevlumab-dependent normalization. Functional analysis indicated pamrevlumab treatment preferentially normalized RT genes known to be regulated by TGFβ and TNF.

[2] = system: radiation-induced lung fibrosis; experiment: Mouse radiation-induced lung fibrosis model: lung function by blood gas analysis; format: in vivo; conditions: blood gas analysis at 24 weeks, compared to RT with no treatment; data not shown
Method: The objective of this study was to compare the activity of pamrevlumab monotherapy to either pirfenidone or nintedanib alone, and to evaluate the potential for enhanced activity of the combined agents. […] In this study, mice received thoracic irradiation (RT), followed by the therapeutic administration of the agents at 16 weeks post-irradiation when lung remodeling was evident by HRCT. After 8 weeks of drug treatment, lung density and volume were assessed by HRCT, lung function was assessed by blood gas analysis, and mice were sacrificed for histologic and gene expression analysis. C57B1/6 mice were irradiated with 14.5 Gy photons; full thorax, single dose. Treatment with therapeutic agent(s) (pamrevlumab, pirfenidone, and/or nintedanib) was initiated 16 weeks post-irradiation and continued for 8 weeks. Pamrevlumab (FG) was given IP, BIW, at 40 mg/kg; pirfenidone (PF) was given PO in chow, QD, at 300 mg/kg; nintedanib (ND) was given PO in chow, QD, at 100 mg/kg. Treatment with each agent alone, with combinations of two, and with a triple combination were carried out. Controls included non-irradiated mice, mice that were irradiated and not treated, and mice that were irradiated and given human IgG. […] The effect of the treatments on lung function was assessed by blood gas analysis (data not shown).

[3] = cited from earlier work
[4] = IPF patients; cited from earlier work
[5] = system: radiation-induced lung fibrosis; experiment: Mouse radiation-induced lung fibrosis model: lung volume by HRCT; format: in vivo; conditions: 14.5 Gy irradiated mice, treated 8 weeks from week 16, measured at 24 weeks; FIG. 4
Method: The objective of this study was to compare the activity of pamrevlumab monotherapy to either pirfenidone or nintedanib alone, and to evaluate the potential for enhanced activity of the combined agents. […] In this study, mice received thoracic irradiation (RT), followed by the therapeutic administration of the agents at 16 weeks post-irradiation when lung remodeling was evident by HRCT. After 8 weeks of drug treatment, lung density and volume were assessed by HRCT, lung function was assessed by blood gas analysis, and mice were sacrificed for histologic and gene expression analysis. C57B1/6 mice were irradiated with 14.5 Gy photons; full thorax, single dose. Treatment with therapeutic agent(s) (pamrevlumab, pirfenidone, and/or nintedanib) was initiated 16 weeks post-irradiation and continued for 8 weeks. Pamrevlumab (FG) was given IP, BIW, at 40 mg/kg; pirfenidone (PF) was given PO in chow, QD, at 300 mg/kg; nintedanib (ND) was given PO in chow, QD, at 100 mg/kg. Treatment with each agent alone, with combinations of two, and with a triple combination were carried out. Controls included non-irradiated mice, mice that were irradiated and not treated, and mice that were irradiated and given human IgG. Endpoint measurements were taken at 24 weeks for HRCT (lung structure), blood gas analysis (lung function), histology and gene expression analysis. […]

[6] = combined clinical studies of pirfenidone, cited from earlier work
[7] = system: IPF; conditions: Week 52, Phase 3 clinical study; cited from earlier work

| Structure (SMILES) | % Normalization of gene expression, Igfbp5 [1] | % Normalization of gene expression, Abca3 [1] | % Normalization of gene expression, Gdf2 [1] | % Normalization of gene expression, Cx3cl1 [1] | % Normalization of gene expression, Retnla [1] | % Normalization of gene expression, Nt5e [1] | % Normalization of gene expression, Plat [1] | % Normalization of gene expression, Ccr2 [1] | % Normalization of gene expression, Igfbp7 [1] | % Normalization of gene expression, Cdkn2a [1] | % Normalization of gene expression, Apln [1] | % Normalization of gene expression, Wisp1 ([1]; RT fold change 6.9) | % Normalization of gene expression, Wisp1 ([1]; RT fold change 11.9) | expression of the Wisp 1 and Nt5e genes [1] | other results |
| --- | --- | --- | --- | --- | --- | --- | --- | --- | --- | --- | --- | --- | --- | --- | --- |
| COC(=O)c1ccc2c(c1)NC(=O)/C2=C(\Nc1ccc(N(C)C(=O)CN2CCN(C)CC2)cc1)c1ccccc1 [nintedanib] | 54% | −35% | 33% | −21% | −9% | −22% | −55% | 10% | 10% | 9% | 6% | −7% | −18% | further induction of expression | O2 saturation [2]: normalized O2 saturation; patients with arterial thromboembolic events ([3]; a clinical trial of nintedanib): 2.5%; patients experiencing abdominal pain ([3]; clinical trials of nintedanib): 15%; patients experiencing vomiting ([3]; clinical trials of nintedanib): 12%; patients experiencing nausea ([3]; clinical trials of nintedanib, placebo 7%): 24%; patients experiencing diarrhea ([3]; clinical trials of nintedanib, placebo 18%): 62%; plasma half-life [4]: 9.5 h; radiation-induced lung volume decrease [5]: not statistically different |
| Cc1ccc(=O)n(-c2ccccc2)c1 [pirfenidone, 5-methyl-1-phenyl-2-(1H)-pyridone] | 27% | −20% | 10% | −8% | −7% | −58% | 0% | −20% | −6% | −37% | 41% | −21% | −78% | further induction of expression | patients experiencing abdominal pain [6]: 24%; patients experiencing vomiting [6]: 13%; patients with skin rash [6]: 30%; patients experiencing nausea ([6]; placebo 16%): 36%; patients experiencing diarrhea ([6]; placebo 20%): 26%; mean UCSD-SOBQ score over placebo treated patients [7]: no statistical significance |
